Measurements reported in patent US10564162B2, “Predictive biomarkers” (BIONOMICS LIMITED, priority 2014, dated 2020).

Assays:
[1] = Maximum tolerated dose of BNC105P in patients; assay type: in vivo, Human; settings: intravenous infusion over 10 minutes, days 1 and 8 of 21 day cycle, with 10 mg oral everolimus daily
Method: (§1) Patients in the BNC105P in combination with everolimus study group (the “combination arm”) were administered 10 mg oral everolimus daily. On days 1 and 8 of the 21 day cycle period, the patients were administered 16 mg/m^2 BNC105P, which had been determined to be the maximum tolerated dose, by intravenous infusion over a 10 minute period (FIG. 1). Treatment was continued until disease progressed, intolerable toxicity became apparent, or until consent was withdrawn. A control group of patients were administered with everolimus alone.

Myoglobin (MB) = experiment: Disruptor-1 trial: plasma Myoglobin level post versus pre BNC105P infusion (Human CustomMAP, Luminex); assay type: in vivo
Source text: (§2) The objective of the study was to determine the response rate of patients administered BNC105P (vascular disrupting agent) in combination with everolimus (mTOR inhibitor) in patients who had progressed from prior tyrosine kinase inhibitor therapy. In addition, the present inventors determined the improvement in 6-months progression free survival (PFS) with the addition of BNC105P to everolimus (Afinitor). A control group of patients received everolimus alone.
as §1
(§3) Human EDTA plasma samples were taken from patients to quantitatively measure the concentration of 56 analytes from the Human CustomMAP at Myriad RBM (MRBM). […]
(§4) The biomarker levels at each time and the change in biomarker levels were examined. The mean change from pre- to post-infusion was calculated as the mean of C1D1 pre-infusion minus C1D1 post-infusion. […]

Stem Cell Factor (SCF) = experiment: Disruptor-1 trial: plasma SCF level post versus pre BNC105P infusion (Human CustomMAP, Luminex); assay type: in vivo
Source text: as §2, §1, §3, §4

[2] = tested on: Serum Amyloid P-Component (SAP); experiment: Disruptor-1 trial: plasma SAP level post versus pre BNC105P infusion (Human CustomMAP, Luminex); assay type: in vivo
Source text: as §2, §1, §3, §4

[3] = tested on: Sex Hormone-Binding Globulin (SHBG); experiment: Disruptor-1 trial: plasma SHBG level post versus pre BNC105P infusion (Human CustomMAP, Luminex); assay type: in vivo
Source text: as §2, §1, §3, §4

[4] = tested on: Matrix Metalloproteinase-9 (MMP-9); experiment: Disruptor-1 trial: plasma MMP-9 level post versus pre BNC105P infusion (Human CustomMAP, Luminex); assay type: in vivo
Source text: as §2, §1, §3, §4

tubulin = experiment: Tubulin polymerisation inhibition; assay type: biochemical
[5] = tested on: tumour endothelial cells (activated) and normal endothelial cells (quiescent); experiment: Potency against activated versus quiescent endothelial cells; assay type: cell-based
[6] = plasma, renal cell carcinoma patients, 16 mg/m^2 BNC105P i.v. infusion plus 10 mg oral everolimus daily, post versus pre infusion
[7] = post/baseline plasma ratio after BNC105P, patients split at the median

| Structure (SMILES) | maximum tolerated dose [1] [mg/m^2] | Median Post/Baseline Ratio, Myoglobin (Myoglobin (MB); [6]) | Biomarker change Ratio Range associated with better PFS, Myoglobin (Myoglobin (MB); [7]) | Median Post/Baseline Ratio, SCF (Stem Cell Factor (SCF); [6]) | Biomarker change Ratio Range associated with better PFS, SCF (Stem Cell Factor (SCF); [7]) | Median Post/Baseline Ratio, SAP [2, 6] | Biomarker change Ratio Range associated with better PFS, SAP [2, 7] | Median Post/Baseline Ratio, SHBG [3, 6] | Biomarker change Ratio Range associated with better PFS, SHBG [3, 7] | Median Post/Baseline Ratio, MMP-9 [4, 6] | Biomarker change Ratio Range associated with better PFS, MMP-9 [4, 7] | tubulin polymerisation inhibition (in words) (tubulin) | selectivity between activated (tumour) and quiescent (normal) endothelial cells (in words) [5] |
| --- | --- | --- | --- | --- | --- | --- | --- | --- | --- | --- | --- | --- | --- |
| COc1cc(C(=O)c2c(C)oc3c(OP(=O)([O-])[O-])c(OC)ccc23)cc(OC)c1OC.[Na+].[Na+] [BNC105P, disodium [6-methoxy-2-methyl-3-(3,4,5-trimethoxybenzoyl)-1-benzofuran-7-yl]phosphate] | 16 | 0.935 | ≤0.935 | 1.0 | >1 | 0.95 | ≤0.95 | 0.92 | ≤0.92 | 1.060 | >1.060 |  |  |
| COc1cc(C(=O)c2c(C)oc3c(O)c(OC)ccc23)cc(OC)c1OC [III, 2-methyl-7-hydroxy-3-(3,4,5-trimethoxybenzoyl)-6-methoxybenzofuran] |  |  |  |  |  |  |  |  |  |  |  | potent tubulin polymerisation inhibitors | show selectivity towards tumor endothelial cells (activated) over normal endothelial cells (quiescent) |
| COc1ccc(/C=C\c2cc(OC)c(OC)c(OC)c2)cc1O [Combretastatin A4, reference compound] |  |  |  |  |  |  |  |  |  |  |  |  | equally potent against quiescent and activated endothelial cells |
